Assay results taken from patent publication US12329827B2, “Devices, compositions and related methods for accelerating and enhancing bone repair” (THE REGENTS OF THE UNIVERSITY OF MICHIGAN, priority 2015, dated 2025).

Legend:
[1] = test system: human umbilical vein endothelial (HUVEC) cells exposed to radiation; assay: Tubule formation of irradiated HUVEC cells in Matrigel (Example III); type: cell-based
Protocol: The effect of DFO on endothelial cells exposed to radiation in vitro was investigated. […] Four groups of human umbilical vein endothelial (HUVEC) cells (control, radiated, radiated+low dose DFO, or radiated+high dose DFO) were incubated in Matrigel and video recorded in real-time over 12 hours. DFO groups received either 25 or 50 μM doses at the time of incubation. Tubule formation was photographed at 100× magnification every four hours. Tubule numbers between groups were compared using ANOVA with p≤0.05 considered statistically significant. A severe diminution in endothelial tubule formation after radiotherapy was observed. Specifically, tubule formation was diminished 30%, 34%, and 27% respectively, compared to control values (p=0.01, at 4, 8, and 12 hours). The effects of radiation were strikingly remediated by treatment with high-dose DFO. […] These findings were clearly observed with real-time recording. […] This evidence supports the contention that DFO strongly remediates the effects of radiation on endothelial tubule formation (see, e.g., Donneys, Alexis, et al., Plastic and Reconstructive Surgery 131.5S (2013): 141).

[2] = test system: irradiated mandibular fractures; assay: Irradiated mandibular fracture, implanted nano-DFO vs standard DFO (Example V); type: in vivo, Rats; settings: radiated fracture, 40-day healing
Protocol: Rats (n=44) were divided into 4 groups. Fracture, radiated fracture, radiated fracture with standard DFO and radiated fracture with nano-DFO. Radiated groups received radiotherapy 2 weeks prior to mandibular osteotomy. The nano-DFO group received implantation of the drug at the time of surgery. Following a 40-day healing period, mandibles were assessed for bony-union, imaged with μCT, and mechanically tested to failure. ANOVA was used for comparison and (p<0.05).

[3] = test system: irradiated mandible fracture; assay: Fracture healing in the irradiated mandible, DFO injected into callus site (Example II); type: in vivo, rats
Description: The effects of radiation on bone formation and healing are mediated through the mechanisms of vascular damage, direct cellular depletion and diminished function of osteocytes. Over time, this accumulated damage predisposes patients to the debilitating problem of late pathologic fractures and non-unions. Here, the use of DFO was employed to bolster the vascular response during bone healing in this setting. It was posited that the untoward effects of radiotherapy on vascular density and osteocyte count and ultimately the mineralization and biomechanical strength of our bone would be improved with the addition of DFO. 12 rats received fractionated radiotherapy to left hemi-mandibles. After recovery, fracture repair ensued with external fixator placement and mandibular osteotomy. DFO was injected into the callus site every other day from post-operative days 4-12. A 40-day healing period was allowed prior to vessel perfusion, PCT, BMT, and histologic processing. Mandibles were dissected and gross union was assessed. Union was defined as bony bridging and the absence of motion across the fracture site. Outcome data was analyzed with ANOVA, and p≤0.05 was statistically significant. The DFO group was compared with two other groups: fracture-Fx and radiated fracture-XFx (n=12, 12).

[4] = test system: murine mandibular DO model; assay: Mandibular distraction osteogenesis model, DFO injections into the regenerate gap (Example I); type: in vivo, Sprague-Dawley rats
Description: The effectiveness of DFO in enhancing regenerate vascularity at a full consolidation period (28 days) in a murine mandibular DO model was established. To investigate whether this augmentation in vascularity would function to accelerate consolidation without compromising regenerate quality or strength, consolidation periods prior to μCT imaging and biomechanical testing (BMT) were progressively shortened. Three time points (14 d, 21 d and 28 d) were selected and six groups of Sprague-Dawley rats (n=60) were equally divided into control (C) and experimental (E) groups for each time period. Each group underwent external fixator placement, mandibular osteotomy, and a 5.1 mm distraction. During distraction, the experimental groups were treated with DFO injections into the regenerate gap. After consolidation, mandibles were imaged and tension tested to failure. ANOVA was conducted between groups, and p<0.05 was considered statistically significant. […] The benefit of treatment was further substantiated by a striking 100% increase in the number of clinically appreciated bony unions at this early time-period (C:4/10 vs. E:8/10, FIG. 2) (see, e.g., Donneys, Alexis, et al., Bone 55.2 (2013): 384-390).

CC(=O)N(O)CCCCCNC(=O)CCC(=O)N(O)CCCCCNC(=O)CCC(=O)N(O)CCCCCN [DFO, N′-{5-[Acetyl(hydroxy)amino]pentyl}-N-[5-({4-[(5-aminopentyl)(hydroxy)amino]-4-oxobutanoyl}amino)pentyl]-N-hydroxysuccinamide]
tubule formation vs radiated cells ([1]; high dose DFO (50 μM), 4, 8 and 12 hours, p=0.02): significantly increased
tubule formation vs normal (control) levels ([1]; high dose DFO (50 μM), each time point): reached or exceeded normal levels
time of incubation to organization of cultures ([1]; high-dose DFO (50 μM), real-time recording): ≤ 2 h
Bony Unions [2]: 67%
radiation-induced decreases in all metrics [2]: remediated
BMT and mineralization metrics vs Fx group ([3]; 40-day healing): no difference
BMT and mineralization metrics vs XFx group ([3]; 40-day healing): significant increase
Vessel Number, Thickness and Separation ([3]; 40-day healing): significant restorative effects
increase in bony unions vs XFx ([3]; 40-day healing): 42%
Vessel Volume vs XFx ([3]; 40-day healing, p=0.029): significant restoration to control level
bony union ([3]; 40-day healing, Fx 100%, XFx 25%): 67%
empty lacunae vs XFx ([3]; histomorphometry, p=0.000): decrease
osteocyte count vs XFx ([3]; histomorphometry, p=0.000): significant restoration to control level
Bone Mineral Density (BMD) vs non-treated controls ([4]; 14 days of consolidation): significant increases
Bone Volume Fraction (BVF) vs non-treated controls ([4]; 14 days of consolidation): significant increases
Ultimate Load (UL) vs non-treated controls ([4]; 14 days of consolidation): significant increases
increase in the number of bony unions vs non-treated controls ([4]; 14 days of consolidation): 100%
number of clinically appreciated bony unions ([4]; 14 days of consolidation, unions/animals): 8/10
BVF, BMD, Yield and UL at 14 days vs fully consolidated 28 d control group ([4]; 14 days with treatment): comparable
bony union rate ([4]; 28 days): 100%
